Laboratory results published in paper PMC11345766, “Computational Design of Pore-Forming Peptides with Potent Antimicrobial and Anticancer Activities” (Journal of Medicinal Chemistry, 2024).
Where two headings read alike, the source gives them in different places. Ends that are not written are not given here.

Columns and labels:
E. coli (TOP10) = assay: Broth microdilution antimicrobial susceptibility assay; type: cell-based, Escherichia coli
Source text: (§1) To test antimicrobial activity, all peptides were initially screened, in a broth microdilution assay, against Gram-negative Escherichia coli (TOP10) and Gram-positive Staphylococcus carnosus (CCM 4838T) Biosafety Level 1 (BSL-1) bacteria (Table 2). […] Four other mutants (LP3, LP26, LP36, and LP39) had higher activity than LP1 against E. coli, and two mutants (LP23 and LP32) had higher activity than LP1 against S. carnosus. Six mutants (LP29, LP30, LP31, LP33, LP40, and LP43) were not active against one or both bacteria, even at the highest concentration tested (50 μM).
(§2) Antimicrobial activity against E. coli TOP10 and S. carnosus CCM 4838T was tested using the broth microdilution assay. Bacteria were cultured in MHA Petri dish for 24 h, subcultured in an MHB test tube for 6 h at 37 °C, and diluted to 10^6 CFU/mL (OD600). […] Dilution series was prepared for concentrations 50 to 0.1 μM in a flat-bottom 96-well plate, inoculated with bacteria, and incubated for 24 h at 37 °C. Growth control wells were free from test compounds, and sterility control wells were free from bacteria. Bacterial MIC was determined as the lowest concentration of test compounds that inhibited visible growth of bacteria (i.e., no visible turbidity).

[1] = Calcein dye leakage assay from LUVs; type: biochemical; conditions: for Calcein leakage (%) from LUVs at P:L 1:100 (mol/mol): pH 7.4; for Calcein leakage: even at a higher P:L ratio of 1:10
Source text: To verify the pore-forming mechanism of action of the designed AMPs, we performed a calcein leakage assay. […] These lipid vesicles were used as simple mimics of bacterial membranes.[58] At the lowest tested peptide-to-lipid (P:L) ratio of 1:100 (mol/mol), three mutants (LP18, LP26, and LP40) caused >90% leakage, which was higher than the leakage caused by LP1 (87%). […] At the same concentration, LP23 caused leakage equivalent to that caused by LP1. Other mutants had lower leakage activity. At a higher P:L ratio of 1:50, all the abovementioned mutants caused 100% leakage, equivalent to that caused by LP1.
Pore-forming activity was tested using a dye leakage assay measuring the leakage of self-quenching fluorescent dye calcein from POPC:POPG (1:1 mol/mol) LUVs. DiD was mixed with lipids (1:500 mol/mol), and lipid film was created by evaporating chloroform, followed by 4 h of desiccation. Dried lipid film was dissolved in calcein buffer (35 mM calcein, 25 mM NaH2PO4·H2O and Na2HPO4·7H2O (3:7 mol/mol), 20 mM NaCl, and 1 mM EDTA). After 10 freeze–thaw cycles, the sample was extruded 50 times through a 100 nm pore size polycarbonate membrane filter. Free calcein in solution was removed using a HiTrap Desalting column. The concentrations of LUVs and peptides were adjusted to 0.02 and 0.1 mM, respectively, in PBS (25 mM NaH2PO4·H2O and Na2HPO4·7H2O (3:7 mol/mol), 100 mM NaCl, and 1 mM EDTA). The investigated P/L ratio was from 1:100 to 1:10 (mol/mol). Fluorescence intensity was measured using a HORIBA Scientific Jobin Yvon FluoroLog-3 Modular Spectrofluorometer (USA). Excitation and emission wavelengths were set to 495 and 520 nm, respectively. Triton X-100 10% caused 100% leakage used for normalization.

S. carnosus (CCM 4838T) = assay: microbe, parasite or virus in culture; type: cell-based, Staphylococcus carnosus; conditions: CCM 4838, 24 h; read-out: Antimicrobial activity (MIC) S. carnosus (CCM 4838T)
Source text: as §1, §2

[2] = system: human red blood cells (HRBCs); conditions: read-out: Hemolysis toxicity (IC50); 1 h incubation
Protocol: To investigate the toxicity for normal human cells, all peptides were first screened against human red blood cells (HRBCs) using a hemolysis assay (Table 2 and Figure S4).
Hemolysis toxicity was tested against HRBCs. Blood samples, collected from the university hospital, were centrifuged twice at 700 × g and once at 1000 × g for 8 min at 4 °C to obtain erythrocyte pellets. Supernatants were always discarded, and pellets were resuspended in PBS (the same as the antimicrobial susceptibility assay). The final RBC suspension was 0.5% (v/v). Dilution series was prepared for concentrations 50 to 0.1 μM in a V-bottom 96-well plate, followed by the addition of RBC suspension. […] After 1 h of incubation at 37 °C, the well plate was centrifuged at 1000 × g for 10 min at 4 °C. The supernatant, collected in a flat-bottom well plate, was measured for OD415 using Tecan Microplate Reader Infinite F500.

[3] = Protocol: (§3) Cytotoxicity against human immortalized keratinocytes HaCaT, human alveolar basal epithelial A549 (derived from adenocarcinoma), and murine macrophages RAW 264.7 was tested using MTT [3-(4,5-dimethylthiazol-2-yl)-2,5-diphenyltetrazolium bromide] assay. Cells were cultured in Dulbecco’s modified Eagle’s medium (DMEM) containing 4 mM glutamine for HaCaT, or 2 mM glutamine for A549 and RAW 264.7 cells, supplemented with 10% heat-inactivated fetal bovine serum (FBS) and antibiotics (0.1 mg/mL penicillin and streptomycin). Nonessential amino acids (NEAA) and sodium pyruvate (1 mM) were added for macrophages. Cell lines were grown in 25 and 75 cm^2 flasks at 37 °C in a humidified atmosphere with 5% CO2. Cells were suspended in DMEM, containing glutamine, NEAA, and sodium pyruvate (as described above), supplemented with 2% FBS, plated in 96-well plates at 4 × 10^4 cells/well, and incubated at 37 °C in a 5% CO2 atmosphere. After overnight incubation, the medium was replaced with fresh DMEM supplemented with peptides at different concentrations: 2, 4, 8, 16, 32, 64, and 128 μM. Negative controls were cells without peptides. After 24 h of peptide treatment at 37 °C in a 5% CO2 atmosphere, medium was replaced with Hank’s buffer (136 mM NaCl, 0.34 mM Na2HPO4, 0.44 mM KH2PO4, 5.4 mM KCl, 4.1 mM NaHCO3, supplemented with 5.5 mM D-glucose) containing 0.5 mg/mL MTT. Mitochondrial dehydrogenases converted soluble yellow dye MTT to insoluble purple formazan. After 4 h of incubation, acidified isopropanol was added to dissolve formazan crystals and measured for OD570 using Tecan microplate reader Infinite M200 (Salzburg, Austria).
[4] = remark: listed apart in the source
Protocol: as §3

Substance	MIC (E. coli (TOP10); 24 h, MHB) [µM]	Calcein leakage (%) from LUVs at P:L 1:100 (mol/mol) [1] [%]	MIC (S. carnosus (CCM 4838T)) [µM]	MIC (E. coli (TOP10); TOP10, 24 h) [µM]	IC50 [2] [µM]	IC50 [3] [µM]	Calcein leakage [1]	IC50 [4] [µM]
KKKKLKKILKKLWQWINQLDNQLQDIKQNK-NH2 [LP3]	0.4	29.6 ± 1.2	0.8	–	–	–	–	–
KKKKMKKMMKKMFQFMNQMDNQMQDMKQNK-NH2 [LP30]	–	21.9 ± 2.5	12.5	> 50	> 50	–	–	–
KKKKLKKLLKKLFQFLNQLDNQLQDLKQNK-NH2 [LP32]	–	56.3 ± 3.3	0.4	1.6	> 50	< 2	–	–
KKKKLKKILKKLFNFINNLDNNLNDIKNNK-NH2 [LP37]	–	70.3 ± 1.7	0.4	0.2	> 50	–	–	–
KNQNLDDILNQLFQFINQLKNQLQKIKKKK-NH2 [LP43]	–	64.2 ± 4.6	0.8	> 50	> 50	–	–	–
H-KKKKLKKILKKLFQFINQLDNQLQDIKQNK-OH [LP22]	0.2	68.0 ± 1.7	0.4	–	–	–	–	–
H-KKKKLKKILKKLFQFINQLDNQLQDFKQNK-OH [LP26]	0.4	91.6 ± 2.8	0.8	–	–	–	–	–
KKKKAKKAAKKAFQFANQADNQAQDAKQNK-NH2 [LP29]	–	0	> 50	> 50	> 50	–	did not cause any leakage	–
KKKKLKKILKKLFQFIDQLINDLQNIKKKK-NH2 [LP20]	1.6	38.6 ± 3.5	1.6	–	–	–	–	–
Ac-KKKKLKKILKKLFQFINQLDNQLQDIKQNK-NH2 [LP23]	–	83.3 ± 5.4	0.4	6.3	> 50	–	–	–
KKKKVKKVVKKVFQFVNQVDNQVQDVKQNK-NH2 [LP31]	–	0	> 50	> 50	> 50	–	≤ 20%	> 128
KKKKLRRILRRLFQFINQLDNQLQDIKQNK-NH2 [LP38]	0.2	76.0 ± 3.3	0.4	–	–	–	–	–
RRRRLKKILKKLFQFINQLDNQLQDIRQNR-NH2 [LP39]	0.4	65.5 ± 4.2	0.8	–	–	–	–	–
KKKKLKKILKKLFQFINQLENQLQEIKQNK-NH2 [LP8]	0.8	29.2 ± 4.9	0.8	–	–	–	–	–
KKKKLKKILKKLFSFISSLDSSLSDIKSSK-NH2 [LP36]	–	71.5 ± 7.4	0.8	0.4	> 50	–	–	–
KKKKLKKILKKLFTFITTLDTTLTDIKTTK-NH2 [LP34]	–	79.3 ± 2.4	0.8	0.8	> 50	–	–	–
KKKKLKKILKKLIQLINQLDNQLQDIKQNK-NH2 [LP2]	–	24.2 ± 2.6	1.6	6.3	> 50	–	–	–
